Source: publication PMC10530836, “Synthesis, Molecular Docking, and Biological Evaluation of Novel Anthranilic Acid Hybrid and Its Diamides as Antispasmodics” (International Journal of Molecular Sciences, 2023)

Columns and labels:
Type in all cases: cell-based
[1] = system: Bacillus amyloliquefaciens 4BCL-YT; assay: Antimicrobial activity, agar well diffusion; conditions: Dose 0.6 mg/disk, dwell = 6 mm
Description: (§1) Twenty tested microorganisms including six Gram-positive bacteria (Bacillus subtilis ATCC 6633, Bacillus amyloliquefaciens 4BCL-YT, Staphylococcus aureus ATCC 25923, Listeria monocytogenes NBIMCC 8632, Enterococcus faecalis ATCC 19433), six Gram-negative bacteria (Salmonella enteritidis ATCC 13076, Klebsiella sp.—clinical isolate, Escherichia coli ATCC 25922, Proteus vulgaris ATCC 6380, Pseudomonas aeruginosa ATCC 9027), two yeasts (Candida albicans NBIMCC 74, Saccharomyces cerevisiae ATCC 9763), and six fungi (Aspergillus niger ATCC 1015, Aspergillus flavus, Penicillium sp., Rhizopus sp., Mucor sp.—plant isolates, Fusarium moniliforme ATCC 38932) from the collection of the Department of Microbiology at the University of Food Technologies—Plovdiv, Bulgaria, were selected for the antimicrobial activity test. The antimicrobial activity of the samples was determined by the agar well diffusion method. The tested bacteria B. subtilis and B. amyloliquefaciens were cultured on LBG agar at 30 °C. The test bacteria S. aureus, L. monocytogenes, E. faecalis, S. enteritidis, Klebsiella sp., E. coli, P. vulgaris, and P. aeruginosa were cultured on LBG agar at 37 °C for 24 h. The yeast C. albicans was cultured on MEA at 37 °C, while S. cerevisiae was cultured on MEA at 30 °C for 24 h. The fungi A. niger, A. flavus, Penicillium sp., Rhizopus sp., Mucor sp., and F. moniliforme were grown on MEA at 30 °C for 7 days or until sporulation. The inocula of the tested bacteria/yeasts was prepared by homogenization of a small amount of biomass in 5 mL of sterile 0.5% NaCl. The inocula of tested fungi were prepared by the addition of 5 mL of sterile 0.5% NaCl into the tubes. After stirring by vortex V-1 plus (Biosan), they were filtered and replaced in other tubes before use. The number of viable cells and fungal spores was determined using a bacterial counting chamber Thoma (Poly-Optik, GmbH, Bad Blankenburg, Germany). Their final concentrations were adjusted to 10^8 cfu/mL for bacterial/yeast cells and 10^5 cfu/mL for fungal spores and then inoculated in preliminarily melted and tempered at 45–48 °C LBG/MEA agar media. Next, the inoculated media were transferred in a quantity of 18 mL in sterile Petri plates (d = 90 mm) (Gosselin™, Hazebrouck, France) and allowed to harden. Then, six wells (d = 6 mm) per plate were cut, and triplicates of 60 μL of each extract were pipetted into the agar wells. The Petri plates were incubated in identical conditions. The antimicrobial activity was determined by measuring the diameter of the inhibition zones around the wells on the 24th and 48th h of incubation. Tested microorganisms with inhibition zones of 18 mm or more were considered sensitive; moderately sensitive were those in which the zones were from 12 to 18 mm; resistant were those in which the inhibition zones were up to 12 mm or completely missing.

[2] = system: Staphylococcus aureus ATCC 25923; assay: Antimicrobial activity, agar well diffusion; conditions: Dose 0.6 mg/disk, dwell = 6 mm
Description: as §1

[3] = system: Gram-positive bacteria, Gram-negative bacteria, yeasts and fungi; assay: Antimicrobial activity, whole panel; conditions: agar well diffusion
Method: In our experiments, six Gram-positive bacteria, six Gram-negative bacteria, two yeasts, and six fungi were used. The hybrid molecule and its diamides were tested in vitro for their antimicrobial activity against human pathogenic bacteria and economically relevant phytopathogenic fungi. The inhibition zones of bacterial and fungal growth caused by the novel compounds are outlined in Table 3. The obtained results were compared to a known antispasmodic mebeverine and its precursors. […]
The antimicrobial activity of the samples was determined by the agar well diffusion method. […]
The inocula of the tested bacteria/yeasts was prepared by homogenization of a small amount of biomass in 5 mL of sterile 0.5% NaCl. […] The number of viable cells and fungal spores was determined using a bacterial counting chamber Thoma (Poly-Optik, GmbH, Bad Blankenburg, Germany). […] Next, the inoculated media were transferred in a quantity of 18 mL in sterile Petri plates (d = 90 mm) (Gosselin™, Hazebrouck, France) and allowed to harden. […]
The antimicrobial activity was determined by measuring the diameter of the inhibition zones around the wells on the 24th and 48th h of incubation. […]

SMILES	Inhibition Zones [1]	Inhibition Zones [2]	antimicrobial activity (overall, in words) [3]
Nc1ccccc1C(=O)NCCc1cccc(Cl)c1 [Compound 3, 2-amino-N-(3-chlorophenethyl)benzamide]	11 mm	8 mm	very good antimicrobial activity
O=C(Nc1ccccc1C(=O)NCCc1cccc(Cl)c1)c1ccccc1 [Compound 4b, 2-benzamido-N-(3-chlorophenethyl)benzamide]	10 mm	8 mm	–
